Data as given in PubChem BioAssay (NCI).
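Tested at 5 concentrations; 48 h exposure; 96-well plates; endpoints linearly interpolated, else capped at highest concentration. Here, GI50 denotes the concentration required for 50% inhibition of growth. The concentration for full growth arrest is given as TGI.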

Tests used:
Test in all cases: NCI tumour cell line growth inhibition, 48 h
PC-3 prostate = tested on: PC-3 prostate
OVCAR-4 ovarian = tested on: OVCAR-4 ovarian
OVCAR-3 ovarian = tested on: OVCAR-3 ovarian
IGROV1 ovarian = tested on: IGROV1 ovarian
TK-10 renal = tested on: TK-10 renal
RXF 393 renal = tested on: RXF 393 renal
SF-539 CNS = tested on: SF-539 CNS
SNB-75 CNS = tested on: SNB-75 CNS
LOX IMVI melanoma = tested on: LOX IMVI melanoma
M14 melanoma = tested on: M14 melanoma

Row | Compound | TGI (PC-3 prostate) [µM] | TGI (OVCAR-4 ovarian) [µM] | TGI (OVCAR-3 ovarian) [µM] | TGI (IGROV1 ovarian) [µM] | TGI (TK-10 renal) [µM] | TGI (RXF 393 renal) [µM] | TGI (SF-539 CNS) [µM] | TGI (SNB-75 CNS) [µM] | TGI (LOX IMVI melanoma) [µM] | TGI (M14 melanoma) [µM] | GI50 (PC-3 prostate) [µM] | GI50 (OVCAR-4 ovarian) [µM] | GI50 (OVCAR-3 ovarian) [µM] | GI50 (IGROV1 ovarian) [µM] | GI50 (TK-10 renal) [µM] | GI50 (RXF 393 renal) [µM] | GI50 (SF-539 CNS) [µM] | GI50 (SNB-75 CNS) [µM] | GI50 (LOX IMVI melanoma) [µM] | GI50 (M14 melanoma) [µM]
1 | Nc1[nH]c(=S)[nH]c(=O)c1N=Nc1c(Br)cc(S(N)(=O)=O)cc1Br | > 100 | > 100 | > 100 | > 100 | > 100 | > 100 | > 100 | > 100 | > 100 | > 100 |  |  |  |  |  |  |  |  |  | 
2 | Cc1cccc(Nc2ncc(-c3ccccc3)o2)c1 | > 25 | > 25 | > 25 | > 25 | > 25 | > 25 | > 25 | > 25 | > 25 | > 25 | > 25 | > 25 | > 25 | > 25 | > 25 | > 25 | > 25 | > 25 | > 25 | > 25
3 | O=[N+]([O-])c1ccc(NC(c2ccccc2)c2ccc3cccnc3c2O)cc1 (centres undefined) | > 100 | > 100 | > 100 | > 51.5 | > 100 | > 100 | > 31.9 | > 100 |  | > 100 | 0.586 | 0.331 | 0.45 | 0.388 | 0.932 | 0.698 | 0.499 | 1.63 | 0.293 | 0.308
4 | Cn1cc(-c2nc(-c3c[nH]c4ccccc34)cs2)c2cccnc21 | > 100 | > 60.4 | 5.9 | > 100 | 65.1 | 15.9 | 1.44 | 0.779 | > 100 | > 54.2 | 0.41 | 0.756 | 0.2 | 1.13 | 1.46 | 0.368 | 0.282 | 0.161 | 0.628 | 0.234
5 | COc1ccc(/C=C2\CCC(C)(CN(C)C)C2=O)cc1Br (centres undefined) | 39.7 | 35.9 | 35.2 | 40.2 | 44 | 35.7 | 43.5 | 76.3 | 35.3 | 35.1 |  |  |  |  |  |  |  |  |  | 
6 | c1ccc2c(c1)CCCc1nnc3nc4ccccc4n3c1-2 | > 100 | > 100 | 37.8 | > 100 | > 100 | 32.7 | 18.4 | > 100 | 10.9 | 25.2 | 7.87 | 3.98 | 4.37 | 2.88 | 6.8 | 3.08 | 3.57 | 23 | 2.61 | 3.13
7 | N/C(=N/O)NOCCC(N)C(=O)O (centres undefined) | > 100 | > 100 | > 100 | > 100 | > 100 | > 100 | > 100 | > 100 | > 100 | > 100 | > 100 | > 100 | > 100 | > 100 | > 100 | > 100 | > 100 | > 100 | > 100 | > 100
8 | COc1cc(-c2cc(-c3ccc(Nc4nc(Nc5ccc(Cl)cc5)nc(Nc5ccc(Cl)cc5)n4)cc3)no2)cc(OC)c1OC | 9.19 | > 100 | 88.9 | > 100 | > 100 | 7.08 | > 100 | > 100 | > 100 | > 100 | 0.565 | 57.1 | 6.68 | 3.22 | 25.4 | 0.816 | 9.05 | 12.7 | 11.4 | 7.11
9 | O=C1NC(=O)/C(=C/c2ccc3nccc(-c4ccncc4)c3c2)S1 | 2.9 | 5.89 | 2.07 | 0.612 | 1.24 | 1.3 | 1.58 | 0.448 | 2.73 | 2.79 | 0.282 | 0.503 | 0.252 | 0.117 | 0.197 | 0.251 | 0.294 | 0.0518 | 0.247 | 0.365
